Reference: patent US20230122967A1, “NOVEL COMPOUNDS AS INHIBITORS OF PCSK9” (SHENGKE PHARMACEUTICALS (JIANGSU) LTD., priority 2020, published 2023)

What was measured:
Assay type in all cases: cell-based
PCSK9 mRNA = experiment: RT-Q-PCR analysis of PCSK9 mRNA in HepG2 cells; conditions: Homo sapiens, 24 h, normalized to GAPDH, read-out: HepG2 Q-PCR PCSK9 mRNA level decrease (10 μM)
Description: HepG2 cells (ATCC, Cat.: HB-8065) were maintained in Growth medium-Eagle's Minimum Essential Medium (Corning, 10-010-CVR), 10% FBS (Gibco, 10099-141), Penicillin (100 units/mL), Streptomycin ([…]). HepG2 cells were incubated at 37° C., 5% CO2.
Cells were cultured in growth medium as described above and treated with the vehicle, Berberine or test compound for 24 h. The RNA was extracted using the Total RNA mini Kit (Tiangen, Beijing, China) according to the manufacturer's instructions. Reverse transcription was carried out using the High-Capacity cDNA reverse transcription kit (Thermo Fisher Scientific). Quantitative real-time PCR was performed using a reaction mixture containing cDNA, specific primers [PCSK9, 5′-[…]-3′ (forward) and 5′-[…]-3′ (reverse); GAPDH, 5′-[…]-3′ (forward) and 5′-[…]-3′ (reverse)] and Maxima SYBR Green/ROX qPCR Master Mix (Thermo Fisher Scientific). PCR amplification was carried out in a Real-Time PCR System. The real-time PCR conditions were 37° C. 10 min; 95° C. 10 min; 95° C. 15 s, 60° C. 30 s, 72° C. 30 s, 40 cycle. The amount of % RNA was normalized to the GAPDH level in the same samples.

PCSK9 = PCSK9 ELISA on HepG2 culture medium; conditions: HepG2 cells, 24 hr
Description: (§1) HepG2 cells (ATCC, Cat.: HB-8065) were maintained in Growth medium-Eagle's Minimum Essential Medium (Corning, 10-010-CVR), 10% FBS (Gibco, 10099-141), Penicillin (100 units/mL), Streptomycin ([…]). HepG2 cells were incubated at 37° C., 5% CO2. HepG2 cells were plated in flat bottom 96-well plates (Corning, 3599) at 40,000 cells/well in 100 μL of growth media. After an overnight incubation, the culture media were changed to serum-free OptiMEM media (Gibco, 31985-062), 90 μL/well. Vehicle, PF-06446846 hydrochloride, berberine, or test compound was added to the culture media, 10 μL/well. After 24 hr medium was harvested, and 10 μL of the medium were used for the PCSK9 ELISA (R&D Systems, SPC900).

HepG2 cells = experiment: Cell viability assay (HepG2 Survival assay, CellTiter-Glo); conditions: 24 hr, cellular ATP levels
Description: as §1, with “black clear” for “flat”, “3063)” for “3599)”, “cellular ATP levels” for “medium was harvested, and 10 μL of the medium”, “measured using CellTiter-Glo® 2.0 Assay (Promega, G9242).” for “used for the PCSK9 ELISA (R&D Systems, SPC900).”

Row | Compound | inhibition at 10 µM (PCSK9 mRNA) | HepG2 PCSK9 ELISA (10 μM) % inhibition (PCSK9) | HepG2 Survival assay (10 μM) (HepG2 cells)
1 | O=C(CN(CC(=O)NC1Cc2ccccc2C1)C(=O)c1cc2ccccc2[nH]1)Nc1ccc(Oc2ccccc2)cc1 [Compound 201-11] | 79.3% | 38% | 100%
2 | O=C(CN(CC(=O)NC1Cc2ccccc2C1)C(=O)c1cc2cccc(F)c2[nH]1)Nc1ccc(Oc2ccc(F)cc2)cc1 [Compound 201-13] | 93.3% | 64% | 97%
3 | CN(C(=O)CN(CC(=O)NC1Cc2ccccc2C1)C(=O)c1cc2cccc(F)c2[nH]1)c1ccc(Oc2ccc(F)cc2)cc1 [Compound 201-14] | 89.5% | 41% | 93%
4 | O=C(CN(CC(=O)NC1Cc2ccccc2C1)C(=O)c1cc2cccc(F)c2[nH]1)Nc1ccc(Oc2ccccc2)cc1 [Compound 201-15] | 95.2% | 46% | 100%
5 | O=C(CN(CC(=O)Nc1ccc(Oc2ccc(F)cc2)cc1)C(=O)c1cc2cc(F)ccc2[nH]1)NCc1ccccc1F [Compound 201-37] | 63% | 50% | 100%
6 | O=C(CN(CC(=O)Nc1ccc(Oc2ccc(F)cc2)cc1)C(=O)c1cc2ccccc2[nH]1)NCc1ccccc1F [Compound 201-41] | 75% | 72% | 100%
7 | O=C(CN(CC(=O)Nc1ccc(Oc2ccccc2)cc1)C(=O)c1cc2ccccc2[nH]1)NCc1ccccc1F [Compound 201-43] | 77% | 60% | 100%
8 | O=C(CN(CC(=O)Nc1ccc(Oc2ccc(F)cc2)cc1)C(=O)c1cc2cccc(F)c2[nH]1)NCc1ccccc1F [Compound 201-45] | 80% | 60% | 100%
9 | CN(C(=O)CN(CC(=O)NCc1ccccc1F)C(=O)c1cc2cccc(F)c2[nH]1)c1ccc(Oc2ccc(F)cc2)cc1 [Compound 201-46] | 46% | 33% | 100%
10 | O=C(CN(CC(=O)Nc1ccc(Oc2ccccc2)cc1)C(=O)c1cc2cccc(F)c2[nH]1)NCc1ccccc1F [Compound 201-47] | 90% | 70% | 99%
11 | CN(Cc1ccccc1)C(=O)CN(CC(=O)Nc1ccc(Oc2ccc(F)cc2)cc1)C(=O)c1cc2c(F)cccc2[nH]1 [Compound 201-49] | 77% | 50% | 100%
12 | CN(Cc1ccccc1)C(=O)CN(CC(=O)N(C)c1ccc(Oc2ccc(F)cc2)cc1)C(=O)c1cc2c(F)cccc2[nH]1 [Compound 201-50] | 77% | 47% | 100%
13 | CN(Cc1ccccc1)C(=O)CN(CC(=O)Nc1ccc(Oc2ccccc2)cc1)C(=O)c1cc2c(F)cccc2[nH]1 [Compound 201-51] | 75% | 55% | 93%
14 | CN(Cc1ccccc1)C(=O)CN(CC(=O)N(C)c1ccc(Oc2ccccc2)cc1)C(=O)c1cc2c(F)cccc2[nH]1 [Compound 201-52] | 79% | 45% | 100%
15 | CN(Cc1ccccc1)C(=O)CN(CC(=O)Nc1ccc(Oc2ccc(F)cc2)cc1)C(=O)c1cc2cc(F)ccc2[nH]1 [Compound 201-53] | 80% | 50% | 100%
16 | CN(Cc1ccccc1)C(=O)CN(CC(=O)N(C)c1ccc(Oc2ccc(F)cc2)cc1)C(=O)c1cc2cc(F)ccc2[nH]1 [Compound 201-54] | 61% | 52% | 100%

Row | Compound | inhibition at 10 µM (PCSK9 mRNA) | HepG2 PCSK9 ELISA (10 μM) % inhibition (PCSK9) | HepG2 Survival assay (10 μM) (HepG2 cells)
17 | CN(Cc1ccccc1F)C(=O)CN(CC(=O)Nc1ccc(Oc2ccc(F)cc2)cc1)C(=O)c1cc2cccc(F)c2[nH]1 [Compound 201-69] | 78% | 80% | 92%
18 | CN(Cc1ccccc1F)C(=O)CN(CC(=O)Nc1ccc(Oc2ccc(F)cc2)cc1)C(=O)c1cc2ccccc2o1 [Compound 201-85] | 70% | 46% | 100%
19 | CN(Cc1ccccc1F)C(=O)CN(CC(=O)Nc1ccc(Oc2ccccc2)cc1)C(=O)c1cc2ccccc2o1 [Compound 201-91] | 58% | 40% | 100%
20 | CN(Cc1ccccc1F)C(=O)CN(CC(=O)Nc1ccc(Oc2ccc(F)c(F)c2)cc1)C(=O)c1cc2ccccc2o1 [Compound 201-97] | 37% | 48% | 100%
21 | CN(Cc1ccccc1F)C(=O)CN(CC(=O)Nc1ccc(Oc2ccc(F)cc2)cc1)C(=O)c1ccc(C(F)(F)F)o1 [Compound 201-103] | 85% | 86% | 100%
22 | CN(Cc1ccccc1F)C(=O)CN(CC(=O)Nc1ccc(Oc2ccccc2)cc1)C(=O)c1ccco1 [Compound 201-127] | 92% | 74% | 90%
23 | CN(Cc1ccccc1F)C(=O)CN(CC(=O)Nc1ccc(Oc2ccc(F)c(F)c2)cc1)C(=O)c1ccco1 [Compound 201-133] | 92% | 98% | 100%
24 | O=C(CN(CC(=O)Nc1ccc(Oc2ccc(C(F)(F)F)cc2)cc1)C(=O)c1ccc(C(F)(F)F)o1)NCc1ccccc1 [Compound 201-209] |  | 91% | 92%
25 | CC(C)c1ccc(Oc2ccc(NC(=O)CN(CC(=O)NC3CCCC3)C(=O)c3ccc(C(F)(F)F)[nH]3)cc2)cc1 [Compound 201-235] | 72% | 73% | 101%
26 | N#Cc1cccc2cc(C(=O)N(CC(=O)Nc3ccc(Oc4ccc(C(F)(F)F)cc4)cc3)CC(=O)NC3CCCC3)[nH]c12 [Compound 201-237] | 77% | 72% | 98%
27 | CC(C)c1ccc(Oc2ccc(NC(=O)CN(CC(=O)NCc3ccccc3)C(=O)c3ccc(C(F)(F)F)[nH]3)cc2)cc1 [Compound 201-249] |  | 85% | 97%
28 | O=C(CN(CC(=O)Nc1ccc(Oc2ccc(C(F)(F)F)cc2)cc1)C(=O)c1cc2cccc(F)c2[nH]1)Nc1ccccc1 [Compound 201-255] | 72% | 87% | 101%
29 | O=C(CN(CC(=O)Nc1ccc(Oc2ccccc2)cc1)C(=O)c1cc2cccc(F)c2[nH]1)Nc1ccccc1 [Compound 201-258] |  | 69% | 97%
30 | CC(C)c1ccc(Oc2ccc(NC(=O)CN(CC(=O)Nc3ccccc3)C(=O)c3ccc(C(F)(F)F)o3)cc2)cc1 [Compound 201-261] |  | 60% | 99%
31 | O=C(CN(CC(=O)Nc1ccc(Oc2ccc(C(F)(F)F)cc2)cc1)C(=O)c1ccc(C(F)(F)F)[nH]1)Nc1ccccc1 [Compound 201-263] |  | 84% | 88%
32 | O=C(CN(CC(=O)Nc1ccc(Oc2ccc(F)c(F)c2)cc1)C(=O)c1cc2cccc(F)c2[nH]1)Nc1ccccc1 [Compound 201-274] | 88% | 77% | 98%
